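Exposure lasted 48 hours, with cells grown in 96-well plates and compounds tested at five concentrations. At the GI50, growth is halved.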 Activity calls are given as the source filed them. No stated cut-off is given here; in the data, active = GI50 up to about 1.1 µM and inactive = higher.
Experiments:
Assay in all cases: growth of human tumour cells (NCI), 48 h
NCI-H460 = test system: NCI-H460
PC-3 = test system: PC-3
RXF 393 = test system: RXF 393
MOLT-4 = test system: MOLT-4
SK-MEL-2 = test system: SK-MEL-2
SK-OV-3 = test system: SK-OV-3
MDA-N = test system: MDA-N
K562 = test system: K562
ACHN = test system: ACHN
MDA-MB-435 = test system: MDA-MB-435
SNB-75 = test system: SNB-75
SW-620 = test system: SW-620
NCI/ADR-RES = test system: NCI/ADR-RES
T47D = test system: T47D
HCT-15 = test system: HCT-15
EKVX = test system: EKVX
COLO 205 = test system: COLO 205
SN12C = test system: SN12C
TK-10 = test system: TK-10
MCF7 = test system: MCF7

Row | SMILES | GI50 (NCI-H460) | GI50 (PC-3) | GI50 (RXF 393) | GI50 (MOLT-4) | GI50 (SK-MEL-2) | GI50 (SK-OV-3) | GI50 (MDA-N) | GI50 (K562) | GI50 (ACHN) | GI50 (MDA-MB-435) | GI50 (SNB-75) | GI50 (SW-620) | GI50 (NCI/ADR-RES) | GI50 (T47D) | GI50 (HCT-15) [µM] | GI50 (EKVX) | GI50 (COLO 205) | GI50 (SN12C) | GI50 (TK-10) | GI50 (MCF7)
1 | COc1cc2c(cc1OC)C(CCN)=NCC2 | > 59.2 µM (inactive) | 16 µM (inactive) | 15.7 µM (inactive) | 17.1 µM (inactive) | 17.4 µM (inactive) | > 76.7 µM (inactive) | 15.8 µM (inactive) | 11.2 µM (inactive) | 16.6 µM (inactive) | 16.5 µM (inactive) | 18.5 µM (inactive) | 5 µM (inactive) | 27.4 µM (inactive) | 8.32 µM (inactive) | 19.6 | 23.1 µM (inactive) | 14.3 µM (inactive) | 19 µM (inactive) | 10.2 µM (inactive) | 18.2 µM (inactive)
2 | Cc1ccc(S(=O)(=O)N2CCSCCSCCSCCSCC2)cc1 | 56.4 µM (inactive) | 55 µM (inactive) | > 27.9 µM (inactive) | > 82.2 µM (inactive) | > 34.6 µM (inactive) | 19.1 µM (inactive) | > 89.7 µM (inactive) | > 71 µM (inactive) | > 58.3 µM (inactive) | 73.8 µM (inactive) | 11.9 µM (inactive) | > 100 µM (inactive) | 32 µM (inactive) | 36.3 µM (inactive) | > 100 | 48.5 µM (inactive) | > 100 µM (inactive) | > 58.5 µM (inactive) | 44.6 µM (inactive) | > 72.9 µM (inactive)
3 | CC1OC(OC2C(O[C@H]3CC[C@@H]4C(=CC[C@@H]5[C@@]4(C)C(=O)C[C@]4(C)[C@@H]([C@H](C)CC[C@@H](O)C(C)(C)O)CC[C@@]54C)C3(C)C)OC(CO)C(O)C2O)C(O)C(O)C1O (stereo not given in full) | > 100 µM (inactive) | > 100 µM (inactive) | > 100 µM (inactive) | 37.2 µM (inactive) | > 100 µM (inactive) | > 100 µM (inactive) | > 100 µM (inactive) | 49 µM (inactive) | > 100 µM (inactive) | > 100 µM (inactive) | > 100 µM (inactive) | 35.3 µM (inactive) | > 100 µM (inactive) | > 100 µM (inactive) | > 100 | > 100 µM (inactive) | > 100 µM (inactive) | > 100 µM (inactive) | > 100 µM (inactive) | > 100 µM (inactive)
4 | C1=CC2=CC=CC3c4nc5ccc6ccccc6c5nc4C(=C1)C23 (stereo not given) | > 100 µM (inactive) | > 100 µM (inactive) | > 100 µM (inactive) | > 100 µM (inactive) | > 100 µM (inactive) | > 100 µM (inactive) | > 100 µM (inactive) | > 100 µM (inactive) | > 100 µM (inactive) | > 100 µM (inactive) | > 100 µM (inactive) | > 100 µM (inactive) | > 100 µM (inactive) | > 100 µM (inactive) | > 100 | > 100 µM (inactive) | > 100 µM (inactive) | > 100 µM (inactive) | > 100 µM (inactive) | > 100 µM (inactive)
5 | COC(=O)/C=C\C(C#N)(C#N)/N=C/c1ccc(OC)cc1 | 19.5 µM (inactive) | 7.4 µM (inactive) | 2.19 µM (inactive) | 1.06 µM (active) | 18.3 µM (inactive) | 17.3 µM (inactive) | 4.75 µM (inactive) | 3.41 µM (inactive) | 2.82 µM (inactive) | 2.33 µM (inactive) | 16.4 µM (inactive) | 1.99 µM (inactive) | 2.73 µM (inactive) | 1.54 µM (inactive) | 3.85 | 16.6 µM (inactive) | 1.65 µM (inactive) | 15.3 µM (inactive) | 2.63 µM (inactive) | 2.73 µM (inactive)
6 | Nc1ccc([As](=O)(O)O)cc1 [ARSANILIC ACID] | > 100 µM (inactive) | > 100 µM (inactive) | > 100 µM (inactive) | > 100 µM (inactive) | > 100 µM (inactive) | > 100 µM (inactive) | > 100 µM (inactive) | > 100 µM (inactive) | > 100 µM (inactive) | > 100 µM (inactive) | > 100 µM (inactive) | > 100 µM (inactive) | > 100 µM (inactive) | > 100 µM (inactive) | > 100 | > 100 µM (inactive) | > 100 µM (inactive) | > 100 µM (inactive) | > 100 µM (inactive) | > 100 µM (inactive)
7 | O=C1NC2c3c(I)sc(I)c3C(=O)C2O1 (stereo not given) | 13.9 µM (inactive) | 6.9 µM (inactive) | 5.56 µM (inactive) | 3.58 µM (inactive) | 10.4 µM (inactive) | 17.3 µM (inactive) | 2.96 µM (inactive) | 4.65 µM (inactive) | 3.05 µM (inactive) | 4.45 µM (inactive) | 13.1 µM (inactive) | 2.82 µM (inactive) | 6.84 µM (inactive) | 15.9 µM (inactive) | 2.08 | 5.52 µM (inactive) | 2.67 µM (inactive) | 4.27 µM (inactive) | 10.9 µM (inactive) | 4.58 µM (inactive)
8 | CC(=O)c1ccc(/N=N/c2ccc3nonc3c2N)cc1 | > 100 µM (inactive) | > 100 µM (inactive) | > 100 µM (inactive) | > 100 µM (inactive) | > 100 µM (inactive) | > 100 µM (inactive) | > 100 µM (inactive) | > 100 µM (inactive) | > 100 µM (inactive) | > 100 µM (inactive) | 94.4 µM (inactive) | > 100 µM (inactive) | > 100 µM (inactive) | > 100 µM (inactive) | > 100 | 9.98 µM (inactive) | > 100 µM (inactive) | > 100 µM (inactive) | 53.1 µM (inactive) | > 100 µM (inactive)
9 | CC1=CC2C3(C)C(C)(C(C)=CP3(=O)c3c(C(C)C)cc(C(C)C)cc3C(C)C)C1P2(=O)c1c(C(C)C)cc(C(C)C)cc1C(C)C (stereo not given) | 1.47 µM (inactive) | 2.7 µM (inactive) | 3.2 µM (inactive) | 1.66 µM (inactive) | 1.72 µM (inactive) | 2.38 µM (inactive) | 2.21 µM (inactive) | 1.91 µM (inactive) | 2.68 µM (inactive) | 1.85 µM (inactive) | 3.05 µM (inactive) | 3.08 µM (inactive) | 2.07 µM (inactive) | 1.33 µM (inactive) | 1.95 | 2.92 µM (inactive) | 1.6 µM (inactive) | 2.58 µM (inactive) | 2.55 µM (inactive) | 2.26 µM (inactive)
10 | CS(=O)(=O)Nc1ccc(NCc2c[nH]c3ccc4ncccc4c23)cc1 | 30 µM (inactive) | 19 µM (inactive) | 23.9 µM (inactive) | 13.6 µM (inactive) | 17.1 µM (inactive) | 50.8 µM (inactive) | 18 µM (inactive) | 18.7 µM (inactive) | 20.6 µM (inactive) | 16.9 µM (inactive) | 30.3 µM (inactive) | 32.3 µM (inactive) | > 100 µM (inactive) | 20.6 µM (inactive) | 27.2 | 40.4 µM (inactive) | 18.6 µM (inactive) | 25.8 µM (inactive) | 25.6 µM (inactive) | 23.1 µM (inactive)
